Experimental data reported in EP3828160A1, “TREPROSTINIL DERIVATIVE COMPOUNDS AND METHODS OF USING SAME” (Corsair Pharma, Inc., priority 2014, dated 2016).

Experiments:
[1] = Human plasma stability assay (Test 2); assay type: in vitro ADME; details: 0.5 uM test compound, 37°C, up to 120 minutes, heparinated human plasma, read-out: Test 2 T1/2
Description: (§1) Four assays on compounds were carried out by the following methods with the results shown in Table I. • (Test 1) Human liver microsomal stability assay was conducted by incubating 0.5 uM test compounds at 37°C for up to 45 minutes in 50 mM of potassium phosphate buffer (pH 7.4) containing 0.5 mg of microsomal protein and 50 µL of NADPH generating system (7.8 mg of glucose 6-phosphate, 1.7 mg of NADPH and 6 U of glucose 6-phosphate dehydrogenase per mL in 2% w/v of sodium bicarbonate). At 0, 5, 15, 30 and 45 min., an aliquot was taken, quenched with internal standard containing stop solution. No co-factor controls at 45 minutes were also prepared. After incubation, the samples were analyzed by LC-MS/MS. Peak area ratios of analyte to internal standard were used to calculate the intrinsic clearance. The intrinsic clearance (CLint) was determined from the first order elimination constant by non-linear regression. Formation of the active drug Compound A over the time course was also monitored by LC-MS/MS analysis. • (Test 2) Human plasma stability assay was conducted by incubating 0.5 uM test compounds at 37°C for up to 120 minutes in heparinated human plasma. At 0, 5, 15, 30, 60 and 120 […] min., an aliquot was taken, quenched with internal standard containing stop solution. After incubation, the samples were analyzed by LC-MS/MS. Peak area ratios of analyte to internal standard were used to calculate the half-life. Formation of the active drug Compound A over the time course was also monitored by LC-MS/MS analysis. • (Test 3) Human skin homogenate stability assay was conducted in a similar way as the human liver microsomal stability assay, by incubating 0.5 uM test compounds at 37°C for up to 45 minutes in 50 mM of potassium phosphate buffer (pH 7.4) containing 0.5 mg of human skin homogenate protein and 50 µL of NADPH generating system (7.8 mg of glucose 6-phosphate, 1.7 mg of NADPH and 6 U of glucose 6-phosphate dehydrogenase per mL in 2% w/v of sodium bicarbonate). At 0, 5, 15, 30 and 45 min., an aliquot was taken, quenched with internal standard containing stop solution. No co-factor controls at 45 minutes were also prepared. After incubation, the samples were analyzed by LC-MS/MS. Peak area ratios of analyte to internal standard were used to calculate the intrinsic clearance. The intrinsic clearance (CLint) was determined from the first order elimination constant by non-linear regression. Formation of the active drug Compound A over the time course was also monitored by LC-MS/MS analysis. • (Test 4) Human hepatocyte stability assay was conducted by incubating 0.5 uM test compound at 37°C for up to 240 minutes. Cryopreserved human hepatocytes were obtained from Celsis IVT (Baltimore, Maryland). Cells were thawed according to vendor's instructions and were suspended in William's Medium E to 0.5 million cells/mL. Test compounds were spiked into the cell suspension to initiate the reactions. At 0, 10,30,60, 120 and 240 min., an aliquot was taken, quenched with internal standard containing stop solution. After incubation, the samples were analyzed by LC-MS/MS. Peak area ratios of analyte to internal standard were used to calculate the intrinsic clearance. The intrinsic clearance (CLint) was determined from the first order elimination constant by non-linear regression. Formation of the active drug Compound A over the time course was also monitored by LC-MS/MS analysis.

[2] = Human liver microsomal stability assay (Test 1); assay type: in vitro ADME; details: liver microsomes, 0.5 uM test compound, 37°C, up to 45 minutes, 0.5 mg microsomal protein, NADPH generating system, pH 7.4, read-out: Test 1 T1/2
Description: as §1

[3] = Human hepatocyte stability assay (Test 4); assay type: in vitro ADME; details: cryopreserved hepatocytes, 0.5 uM test compound, 37°C, up to 240 minutes, 0.5 million cells/mL in William's Medium E, read-out: Test 4 T1/2
Description: as §1

[4] = Human skin homogenate stability assay (Test 3); assay type: in vitro ADME; details: 0.5 uM test compound, 37°C, up to 45 minutes, 0.5 mg human skin homogenate protein, NADPH generating system, pH 7.4, read-out: Test 3 T1/2
Description: as §1

[5] = treprostinil as the free acid, cited from earlier work

| Compound | half-life at 0.5 uM [1] [min] | half-life at 0.5 uM [2] [min] | half-life at 0.5 uM [3] [min] | half-life at 0.5 uM [4] [min] | absolute oral bioavailability ([5]; oral) | systemic half life ([5]; due to significant metabolism) |
| --- | --- | --- | --- | --- | --- | --- |
| CCCCCC(O)CCC1C(O)CC2Cc3c(cccc3OCC(=O)N(C)CC(=O)OC)CC21 (stereo not drawn) [Compound 13, ({2-[2-Hydroxy-1-(3-hydroxy-octyl)-2,3,3a,4,9,9a-hexahydro-1H-cyclopenta[b]naphthalen-5-yloxy]-acetyl}-methyl-amino)-acetic acid methyl ester] | > 60 | < 15 | < 15 |  |  |  |
| CCCCCC(O)CCC1C(OC(=O)CCCC)CC2Cc3c(cccc3OCC(=O)OC)CC21 (stereo not drawn) [Compound 22, Pentanoic acid 1-(3-hydroxy-octyl)-5-methoxycarbonylmethoxy-2,3,3a,4,9,9a-hexahydro-1H-cyclopenta[b]naphthalen-2-yl ester] | > 60 | < 15 |  | > 60 |  |  |
| CCCCCC(O)CCC1C(OC(=O)OCC)CC2Cc3c(cccc3OCC(=O)OC)CC21 (stereo not drawn) [Compound 25, [2-Ethoxycarbonyloxy-1-(3-hydroxy-octyl)-2,3,3a,4,9,9a-hexahydro-1H-cyclopenta[b]naphthalen-5-yloxy]-acetic acid methyl ester] | > 60 | < 15 |  | 31 to 60 |  |  |
| CCCCC[C@H](O)CC[C@@H]1[C@H]2Cc3cccc4c3C[C@H]2C[C@H]1OC(=O)CO4 [Compound 57, Treprostinil 2-hydroxy lactone] | > 60 | > 60 | > 60 |  |  |  |
| CCCCC[C@H](O)CC[C@@H]1[C@H]2Cc3cccc(OCC(=O)O)c3C[C@H]2C[C@H]1O [treprostinil] |  |  |  |  | less than 10% | very short |

Second part, led by results:

| half-life at 0.5 uM [1] [min] | half-life at 0.5 uM [2] [min] | half-life at 0.5 uM [3] [min] | half-life at 0.5 uM [4] [min] | Compound | absolute oral bioavailability ([5]; oral) | systemic half life ([5]; due to significant metabolism) |
| --- | --- | --- | --- | --- | --- | --- |
| > 60 | < 15 | 31 to 60 |  | CCCCCC(O)CCC1C(O)CC2Cc3c(cccc3OCC(=O)NCC3CC3)CC21 (stereo not drawn) [Compound 2, N-Cyclopropylmethyl-2-[2-hydroxy-1-(3-hydroxy-octyl)-2,3,3a,4,9,9a-hexahydro-1H-cyclopenta[b]naphthalen-5-yloxy]-acetamide] |  |  |
| > 60 | 15 to 30 | 15 to 30 |  | CCCCCC(O)CCC1C(O)CC2Cc3c(cccc3OCC(=O)NCCO)CC21 (stereo not drawn) [Compound 7, N-(2-Hydroxy-ethyl)-2-[2-hydroxy-1-(3-hydroxy-octyl)-2,3,3a,4,9,9a-hexahydro-1H-cyclopenta[b]naphthalen-5-yloxy]-acetamide] |  |  |
| > 60 | < 15 | < 15 | > 60 | CCCCCC(O)CCC1C(O)CC2Cc3c(cccc3OCC(=O)NCC(F)(F)F)CC21 (stereo not drawn) [Compound 14, 2-[2-Hydroxy-1-(3-hydroxy-octyl)-2,3,3a,4,9,9a-hexahydro-1H-cyclopenta[b]naphthalen-5-yloxy]-N-(2,2,2-trifluoro-ethyl)-acetamide] |  |  |
